Reference: PubChem BioAssay (NCI)
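Briefly, cells in 96-well plates were exposed to five compound concentrations for 48 h, and endpoints were estimated by linear interpolation. TGI: concentration producing complete growth inhibition.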

Experiments:
Experiment in all cases: NCI tumour cell line growth inhibition, 48 h
NCI-H226 lung = tested on: NCI-H226 lung
SF-295 CNS = tested on: SF-295 CNS
SK-MEL-2 melanoma = tested on: SK-MEL-2 melanoma
HT29 colon = tested on: HT29 colon
UO-31 renal = tested on: UO-31 renal
HCT-15 colon = tested on: HCT-15 colon
HCC-2998 colon = tested on: HCC-2998 colon
OVCAR-3 ovarian = tested on: OVCAR-3 ovarian
COLO 205 colon = tested on: COLO 205 colon
NCI-H522 lung = tested on: NCI-H522 lung
SK-OV-3 ovarian = tested on: SK-OV-3 ovarian
HCT-116 colon = tested on: HCT-116 colon
NCI-H23 lung = tested on: NCI-H23 lung
CCRF-CEM leukemia = tested on: CCRF-CEM leukemia
MOLT-4 leukemia = tested on: MOLT-4 leukemia
U251 CNS = tested on: U251 CNS
786-0 renal = tested on: 786-0 renal
SF-268 CNS = tested on: SF-268 CNS
RPMI-8226 leukemia = tested on: RPMI-8226 leukemia
M14 melanoma = tested on: M14 melanoma
IGROV1 ovarian = tested on: IGROV1 ovarian
MCF7 breast = tested on: MCF7 breast
A549 NSCLC = tested on: A549 NSCLC
OVCAR-4 ovarian = tested on: OVCAR-4 ovarian
SF-539 CNS = tested on: SF-539 CNS
HOP-92 NSCLC = tested on: HOP-92 NSCLC
OVCAR-8 ovarian = tested on: OVCAR-8 ovarian
ACHN renal = tested on: ACHN renal
DU-145 prostate = tested on: DU-145 prostate
MDA-MB-435 = tested on: MDA-MB-435
UACC-62 melanoma = tested on: UACC-62 melanoma
CAKI-1 renal = tested on: CAKI-1 renal
NCI/ADR-RES ovarian = tested on: NCI/ADR-RES ovarian
OVCAR-5 ovarian = tested on: OVCAR-5 ovarian
SW-620 colon = tested on: SW-620 colon
SR leukemia = tested on: SR leukemia
BT-549 breast = tested on: BT-549 breast
EKVX NSCLC = tested on: EKVX NSCLC
HL-60(TB) leukemia = tested on: HL-60(TB) leukemia
PC-3 prostate = tested on: PC-3 prostate
UACC-257 melanoma = tested on: UACC-257 melanoma
MALME-3M melanoma = tested on: MALME-3M melanoma
SN12C renal = tested on: SN12C renal
SNB-19 CNS = tested on: SNB-19 CNS
A498 renal = tested on: A498 renal
SK-MEL-28 melanoma = tested on: SK-MEL-28 melanoma
KM12 colon = tested on: KM12 colon
LOX IMVI melanoma = tested on: LOX IMVI melanoma
RXF 393 renal = tested on: RXF 393 renal
TK-10 renal = tested on: TK-10 renal
HOP-62 NSCLC = tested on: HOP-62 NSCLC
SNB-75 CNS = tested on: SNB-75 CNS
MDA-N = tested on: MDA-N
MDA-MB-231 breast = tested on: MDA-MB-231 breast
NCI-H460 lung = tested on: NCI-H460 lung
T-47D breast = tested on: T-47D breast
HS 578T breast = tested on: HS 578T breast
SK-MEL-5 melanoma = tested on: SK-MEL-5 melanoma

SMILES: C/C(=N\NC(N)=S)c1sc(-n2nc(-c3ccccc3)cc2-c2ccccc2)nc1C
- TGI (NCI-H226 lung): > 100 µM
- TGI (SF-295 CNS): > 100 µM
- TGI (SK-MEL-2 melanoma): > 100 µM
- TGI (HT29 colon): > 100 µM
- TGI (UO-31 renal): > 100 µM
- TGI (HCT-15 colon): > 100 µM
- TGI (HCC-2998 colon): > 100 µM
- TGI (OVCAR-3 ovarian): > 100 µM
- TGI (COLO 205 colon): > 100 µM
- TGI (NCI-H522 lung): > 100 µM
- TGI (SK-OV-3 ovarian): > 100 µM
- TGI (HCT-116 colon): > 100 µM
- TGI (NCI-H23 lung): > 100 µM
- TGI (CCRF-CEM leukemia): > 100 µM
- TGI (MOLT-4 leukemia): > 100 µM
- TGI (U251 CNS): > 100 µM
- TGI (786-0 renal): > 100 µM
- TGI (SF-268 CNS): > 100 µM
- TGI (RPMI-8226 leukemia): 61.2 µM
- TGI (M14 melanoma): > 100 µM
- TGI (IGROV1 ovarian): > 100 µM
- TGI (MCF7 breast): > 100 µM
- TGI (A549 NSCLC): > 100 µM
- TGI (OVCAR-4 ovarian): > 100 µM
- TGI (SF-539 CNS): > 100 µM
- TGI (HOP-92 NSCLC): > 100 µM
- TGI (OVCAR-8 ovarian): > 100 µM
- TGI (ACHN renal): > 100 µM
- TGI (DU-145 prostate): > 100 µM
- TGI (MDA-MB-435): > 100 µM
- TGI (UACC-62 melanoma): > 100 µM
- TGI (CAKI-1 renal): > 100 µM
- TGI (NCI/ADR-RES ovarian): > 100 µM
- TGI (OVCAR-5 ovarian): > 100 µM
- TGI (SW-620 colon): > 100 µM
- TGI (SR leukemia): > 100 µM
- TGI (BT-549 breast): > 100 µM
- TGI (EKVX NSCLC): > 100 µM
- TGI (HL-60(TB) leukemia): > 100 µM
- TGI (PC-3 prostate): > 100 µM
- TGI (UACC-257 melanoma): > 100 µM
- TGI (MALME-3M melanoma): > 100 µM
- TGI (SN12C renal): > 100 µM
- TGI (SNB-19 CNS): > 100 µM
- TGI (A498 renal): > 100 µM
- TGI (SK-MEL-28 melanoma): > 100 µM
- TGI (KM12 colon): > 100 µM
- TGI (LOX IMVI melanoma): > 100 µM
- TGI (RXF 393 renal): > 100 µM
- TGI (TK-10 renal): > 100 µM
- TGI (HOP-62 NSCLC): > 100 µM
- TGI (SNB-75 CNS): > 100 µM
- TGI (MDA-N): > 100 µM
- TGI (MDA-MB-231 breast): > 100 µM
- TGI (NCI-H460 lung): > 100 µM
- TGI (T-47D breast): > 100 µM
- TGI (HS 578T breast): > 100 µM
- TGI (SK-MEL-5 melanoma): > 100 µM
